# Source: PMC12117998, “First Steps toward the Design of Peptides that Influence the Intracellular Palmitoylation Machinery” (Chembiochem, 2025)
# No end group written: not given here.
# Assays:
# HeLa cells = assay: Cell viability assay (resazurin); assay type: cell-based; conditions: 24 h, CF‐labeled peptides, n = 3 (Figure 3A)
# Description: (§1) HeLa (13,000), MDA‐MB‐231 (26,000), HFF‐1 (16,000) cells, mEGFP‐HRas (18,000), and SW480 and SW620 (15,000) were seeded into a 96‐well plate. Cells were treated with suitable peptide concentrations diluted in the corresponding serum‐free culture medium. After 24 h incubation under standard growth conditions, the cells were washed once with PBS. The positive control was treated for 10 min with 70% EtOH. To test the viability, cells were treated with a resazurin solution (In Vitro Toxicology Assay Kit, resazurin based, Sigma) and incubated for a further 1–2 h. The product resorufin was measured at 595 nm (λex = 550 nm) on an infinite M200 plate reader (Tecan) and normalized to the untreated negative control cells.
# HeLa mEGFP‐HRas cells = assay: Cell viability assay (resazurin); assay type: cell-based; conditions: 24 h, n = 3 (Figure S11A)
# Description: as §1
# MDA‐MB‐231 = assay: Cell viability assay (resazurin); assay type: cell-based; conditions: MDA‐MB‐231, 24 h, CF‐labeled peptides, n = 3 (Figure 3B)
# Description: as §1
# human 6His‐ZDHHC7 = molecular target: T1, human 6His‐ZDHHC7 (Homo sapiens, UniProt Q9NXF8); assay: In vitro palmitoylation assay (LC‐MS); assay type: biochemical; conditions: 50 μM CF‐labeled peptide, 37 °C, LC‐MS (Figure 4)
# T1 construct: 6His; purchased Proteintech
# T1 sequence (Q9NXF8 1-308): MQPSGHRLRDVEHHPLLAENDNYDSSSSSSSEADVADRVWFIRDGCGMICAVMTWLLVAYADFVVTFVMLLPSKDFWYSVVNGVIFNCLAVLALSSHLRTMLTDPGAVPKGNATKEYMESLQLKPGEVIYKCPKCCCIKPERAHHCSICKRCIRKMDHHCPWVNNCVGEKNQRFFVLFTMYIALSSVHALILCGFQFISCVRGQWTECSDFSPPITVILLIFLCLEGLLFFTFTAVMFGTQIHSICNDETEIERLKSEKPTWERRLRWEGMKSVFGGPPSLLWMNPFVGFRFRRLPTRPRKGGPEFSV
# Description: The 50 μM CF‐labeled peptides were incubated with 100 nM human 6His‐ZDHHC7 (Proteintech) and 100 μM palmitoyl‐CoA (Santa Cruz Biotechnology) in reaction buffer (50 mM HEPES, 150 mM NaCl, 1 mM EDTA, 1 mM (tris(2‐carboxyethyl)phosphine) (TCEP), 0.3 mM DDM, pH 7.0) for 2 h at 37 °C. Control reactions without ZDHHC7 or palm‐CoA were incubated with the appropriate volume of reaction buffer. Afterward, the reaction was centrifuged for 5 min at 13000 rpm. The precipitate was dissolved in DMSO/ACN (3:2, v/v). To enrich the peptide from the supernatant, C8 ZipTips were used. All samples were analyzed on the LC MS‐8060 triple quadrupole ESI‐MS (Shimadzu). The fluorescence intensity (λex = 493 nm, λem = 517 nm) of the samples was measured on an EC 160/2 NUCLEODUR 300‐5 C18 ec column using linear gradients from 20% to 70 % ACN in ddH2O + 0.1% FA over 7 min.
# [1] = system: EGFR signaling in SW480 cells; assay: EGFR‐related signaling cascade (immunoblot); assay type: cell-based, human; conditions: SW480, serum‐starved, 15 μM DC‐2 for 6 h
# Description: (§2) SW480 and SW620 cells (1,200,000) were seeded into a 6‐well plate. The next day, cells were once washed with PBS and starved for 18 h with DMEM + 0.2% BSA. Next, 15 μM DC‐2 diluted in DMEM + 0.2% BSA was incubated with the cells for 6 h. Control wells were only treated with the starvation medium. Afterward, all wells were washed once with PBS and 200 ng ml^−1 EGF diluted in DMEM + 0.2% BSA was added for 15 min. Cells were again washed once with PBS and ice‐cold lysis buffer (25 mM Tris, 150 mM NaCl,1 mM TCEP, 2 mM EDTA, 1% Triton‐X‐100, pH 7.4) supplemented with Halt Protease and Phosphatase Inhibitor Cocktail (Thermo Fisher) was added to scrape the cells from the well. Lysates were incubated on ice for 30 min slightly shaking. After centrifugation for 30 min at 14,000 rpm at 4 °C, lysates were mixed with 4X SDS‐PAGE loading buffer (200 mM Tris‐HCl pH 6.8, 400 mM dithiothreitol, 8% SDS, 0.4% bromophenol blue, and 40% glycerol) and heated at 95 °C for 5 min. Protein samples were analyzed by SDS‐PAGE and immunoblotting. The following antibodies were used: anti‐EGFR (Cell Signaling Technology (CST) Cat#4267), anti‐pEGFR (CST Cat #3777), anti‐AKT (CST Cat#9272); anti‐pAKT (CST Cat#4060); anti‐ERK1/2 (CST Cat#4695); anti‐pERK1/2 (CST Cat#4370); anti‐β‐actin‐horseradish peroxidase (HRP) (Santa Cruz Biotechnology Cat# sc‐47778 HRP); or anti‐rabbit‐HRP conjugate (CST Cat#7074S). Images were cropped, processed, and quantified using the ImageLab software (BioRad).
# [2] = system: EGFR signaling in SW620 cells; assay: EGFR‐related signaling cascade (immunoblot); assay type: cell-based, human; conditions: SW620 (low EGFR expression), serum‐starved, 15 μM DC‐2 for 6 h, ± 200 ng ml^−1 EGF 15 min, n = 3
# Description: as §2
substance,measurement,setting,value
"GLRKRLRKFRNKKMDHHCPW-NH2 [DC‐2, CPP sC18* fused to the DHHC motif derived from ZDHHC2/3/6/7/15/16/20]",cytotoxicity (cell viability),HeLa cells,most active peptide
same,cytotoxicity at 100 μM,HeLa mEGFP‐HRas cells,did not harm the cells
same,cytotoxicity (cell viability),MDA‐MB‐231,most active peptide
same,palmitoylation in presence of ZDHHC7,"human 6His‐ZDHHC7; 100 nM ZDHHC7, 100 μM palmitoyl‐CoA, pH 7.0, 2 h",palmitoylated
same,palmitoylation in absence of ZDHHC7 (auto‐palmitoylation),"human 6His‐ZDHHC7; 100 μM palmitoyl‐CoA, no ZDHHC7, pH 7.0, 2 h",auto‐palmitoylation
same,"ERK and AKT phosphorylation, peptide only vs untreated",[1]; n = 3 (Figure 8B),slight increase in ERK and AKT phosphorylation
same,"EGFR and ERK phosphorylation, peptide and EGF vs EGF only","[1]; then 200 ng ml^−1 EGF 15 min, n = 3 (Figure 8B,C)",increase in EGFR and ERK phosphorylation
same,effects on EGFR signaling,[2],no effects
